The source of these data is publication PMC4457528, “Identification of Novel Small Molecule Inhibitors of Oncogenic RET Kinase” (PLoS ONE, 2015).

Assay in all cases: KinomeScan kinase panel, single concentration 10 µM
Holding throughout (format): binding

Assay [1] addresses T1, KinomeScan kinase panel (Homo sapiens, UniProt P36897).
T1 construct: purchased DiscoveRx (KinomeScan)
T1 sequence (P36897 34-503): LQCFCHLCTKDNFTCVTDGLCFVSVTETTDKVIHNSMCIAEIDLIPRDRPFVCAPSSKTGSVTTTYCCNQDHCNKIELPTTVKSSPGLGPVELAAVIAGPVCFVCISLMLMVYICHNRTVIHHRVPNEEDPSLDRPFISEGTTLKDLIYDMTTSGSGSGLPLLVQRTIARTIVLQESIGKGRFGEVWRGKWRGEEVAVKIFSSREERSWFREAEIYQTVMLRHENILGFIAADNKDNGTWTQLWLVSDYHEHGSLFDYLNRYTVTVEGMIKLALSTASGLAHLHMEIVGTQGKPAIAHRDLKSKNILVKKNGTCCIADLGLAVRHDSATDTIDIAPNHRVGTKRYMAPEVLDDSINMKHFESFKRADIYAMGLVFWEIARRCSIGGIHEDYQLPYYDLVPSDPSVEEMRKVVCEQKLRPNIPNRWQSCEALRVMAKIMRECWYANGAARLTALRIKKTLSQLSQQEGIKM
As to conditions: read-out: score (%).

Assay [2] addresses T2, KinomeScan kinase panel (Homo sapiens, UniProt P14616).
T2 construct: purchased DiscoveRx (KinomeScan)
The conditions noted are these: INSRR, 10 µM; read-out: score (%).

For assay [3], the target named is T3, KinomeScan kinase panel (Homo sapiens, UniProt P30291).
T3 construct: purchased DiscoveRx (KinomeScan)
As to conditions: kinase WEE1; 10 µM; read-out: score (%).

Assay [4] deals with T4, KinomeScan kinase panel (Homo sapiens, UniProt O15146).
T4 construct: purchased DiscoveRx (KinomeScan)
T4 sequence (O15146 24-869): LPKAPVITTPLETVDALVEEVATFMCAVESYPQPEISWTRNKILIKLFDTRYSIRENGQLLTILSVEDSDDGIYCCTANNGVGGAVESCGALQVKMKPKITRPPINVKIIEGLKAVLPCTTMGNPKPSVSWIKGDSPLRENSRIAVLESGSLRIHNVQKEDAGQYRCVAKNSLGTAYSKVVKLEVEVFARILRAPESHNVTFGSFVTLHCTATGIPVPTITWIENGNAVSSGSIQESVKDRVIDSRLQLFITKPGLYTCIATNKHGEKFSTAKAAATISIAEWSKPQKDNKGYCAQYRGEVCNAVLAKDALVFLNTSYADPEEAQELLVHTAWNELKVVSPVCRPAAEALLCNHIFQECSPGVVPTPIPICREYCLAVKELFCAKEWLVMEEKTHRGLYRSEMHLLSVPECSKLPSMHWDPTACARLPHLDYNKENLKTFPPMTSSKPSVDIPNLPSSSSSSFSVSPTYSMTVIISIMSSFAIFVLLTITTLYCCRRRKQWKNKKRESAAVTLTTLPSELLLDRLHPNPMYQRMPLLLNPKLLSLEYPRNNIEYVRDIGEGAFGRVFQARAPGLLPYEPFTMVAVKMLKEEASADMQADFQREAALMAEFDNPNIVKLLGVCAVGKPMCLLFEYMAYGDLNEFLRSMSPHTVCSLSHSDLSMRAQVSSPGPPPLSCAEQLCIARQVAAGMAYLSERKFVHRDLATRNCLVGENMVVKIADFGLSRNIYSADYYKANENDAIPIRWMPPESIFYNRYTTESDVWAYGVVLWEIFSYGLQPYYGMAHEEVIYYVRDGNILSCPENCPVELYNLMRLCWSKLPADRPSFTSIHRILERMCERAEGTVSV
The conditions noted are these: MUSK, 10 µM; read-out: score (%).

In assay [5] the target is T5, KinomeScan kinase panel (Homo sapiens, UniProt O75716).
T5 construct: purchased DiscoveRx (KinomeScan)
As to conditions: read-out: score (%).

The target in assay [6] is T6, KinomeScan kinase panel (Homo sapiens, UniProt Q14680).
T6 construct: purchased DiscoveRx (KinomeScan)
The conditions noted are these: MELK, 10 µM; read-out: score (%).

Assay [7] has as its target T7, KinomeScan kinase panel (Homo sapiens, UniProt P53355).
T7 construct: purchased DiscoveRx (KinomeScan)
As to conditions: DAPK1, 10 µM; read-out: score (%).

In assay [8] the target is T8, KinomeScan kinase panel (Homo sapiens, UniProt Q8IVH8).
T8 construct: purchased DiscoveRx (KinomeScan)
T8 sequence (Q8IVH8 1-894): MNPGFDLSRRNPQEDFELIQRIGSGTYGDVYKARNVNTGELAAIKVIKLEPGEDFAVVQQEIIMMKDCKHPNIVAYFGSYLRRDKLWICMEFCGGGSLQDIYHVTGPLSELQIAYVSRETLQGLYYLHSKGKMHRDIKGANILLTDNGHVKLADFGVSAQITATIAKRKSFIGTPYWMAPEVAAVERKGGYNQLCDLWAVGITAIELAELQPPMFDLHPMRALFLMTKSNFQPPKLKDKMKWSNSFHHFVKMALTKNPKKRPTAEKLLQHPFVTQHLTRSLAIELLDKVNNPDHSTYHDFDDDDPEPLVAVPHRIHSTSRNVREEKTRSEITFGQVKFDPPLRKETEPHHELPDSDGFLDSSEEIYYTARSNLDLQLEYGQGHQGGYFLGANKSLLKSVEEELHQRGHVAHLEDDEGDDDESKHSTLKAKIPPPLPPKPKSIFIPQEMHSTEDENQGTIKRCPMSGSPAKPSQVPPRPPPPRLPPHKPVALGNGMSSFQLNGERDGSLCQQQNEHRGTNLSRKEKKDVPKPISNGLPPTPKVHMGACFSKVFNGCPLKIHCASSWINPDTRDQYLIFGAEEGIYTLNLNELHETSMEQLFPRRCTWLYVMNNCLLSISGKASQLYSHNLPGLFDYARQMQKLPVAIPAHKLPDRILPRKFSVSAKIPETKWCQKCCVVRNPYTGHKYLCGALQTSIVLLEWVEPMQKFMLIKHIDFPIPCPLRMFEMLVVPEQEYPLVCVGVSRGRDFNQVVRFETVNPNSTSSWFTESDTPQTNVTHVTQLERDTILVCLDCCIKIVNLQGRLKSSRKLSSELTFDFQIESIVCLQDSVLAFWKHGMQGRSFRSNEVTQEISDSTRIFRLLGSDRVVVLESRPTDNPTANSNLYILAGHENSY
The conditions noted are these: MAP4K3, 10 µM.

Assay [9] concerns the target T9, KinomeScan kinase panel (Homo sapiens, UniProt P00533).
T9 construct: purchased DiscoveRx (KinomeScan)
As to conditions: EGFR, 10 µM.

Molecules are shown by their SMILES. Where two headings read alike, the source gives them in different places.

T3 sequence (P30291 whole entry): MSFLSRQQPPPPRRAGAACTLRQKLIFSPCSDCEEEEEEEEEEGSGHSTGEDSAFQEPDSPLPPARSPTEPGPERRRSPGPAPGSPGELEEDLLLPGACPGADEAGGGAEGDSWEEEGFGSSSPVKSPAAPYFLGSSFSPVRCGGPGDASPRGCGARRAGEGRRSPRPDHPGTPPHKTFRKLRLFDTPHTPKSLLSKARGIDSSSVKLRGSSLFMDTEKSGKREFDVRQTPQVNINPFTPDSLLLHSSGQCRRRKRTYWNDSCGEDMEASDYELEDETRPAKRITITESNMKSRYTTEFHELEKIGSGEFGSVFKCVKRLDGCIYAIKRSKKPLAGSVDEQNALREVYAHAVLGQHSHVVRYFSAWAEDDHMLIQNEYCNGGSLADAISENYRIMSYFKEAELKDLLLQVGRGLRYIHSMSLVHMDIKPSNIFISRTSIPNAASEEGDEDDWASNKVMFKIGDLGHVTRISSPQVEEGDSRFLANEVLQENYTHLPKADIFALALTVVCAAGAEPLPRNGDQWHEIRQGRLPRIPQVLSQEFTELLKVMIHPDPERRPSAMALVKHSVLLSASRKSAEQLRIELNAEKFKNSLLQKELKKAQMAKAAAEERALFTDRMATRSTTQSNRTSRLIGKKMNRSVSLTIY
T5 sequence (O75716 whole entry): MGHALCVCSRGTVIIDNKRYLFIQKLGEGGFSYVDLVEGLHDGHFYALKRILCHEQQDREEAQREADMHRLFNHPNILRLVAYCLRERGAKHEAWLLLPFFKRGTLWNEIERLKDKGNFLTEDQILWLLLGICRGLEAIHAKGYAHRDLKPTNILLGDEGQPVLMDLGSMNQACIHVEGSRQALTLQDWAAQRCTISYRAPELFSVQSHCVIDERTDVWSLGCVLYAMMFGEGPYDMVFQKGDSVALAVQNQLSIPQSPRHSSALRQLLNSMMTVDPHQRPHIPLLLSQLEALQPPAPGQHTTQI
T7 sequence (P53355 whole entry): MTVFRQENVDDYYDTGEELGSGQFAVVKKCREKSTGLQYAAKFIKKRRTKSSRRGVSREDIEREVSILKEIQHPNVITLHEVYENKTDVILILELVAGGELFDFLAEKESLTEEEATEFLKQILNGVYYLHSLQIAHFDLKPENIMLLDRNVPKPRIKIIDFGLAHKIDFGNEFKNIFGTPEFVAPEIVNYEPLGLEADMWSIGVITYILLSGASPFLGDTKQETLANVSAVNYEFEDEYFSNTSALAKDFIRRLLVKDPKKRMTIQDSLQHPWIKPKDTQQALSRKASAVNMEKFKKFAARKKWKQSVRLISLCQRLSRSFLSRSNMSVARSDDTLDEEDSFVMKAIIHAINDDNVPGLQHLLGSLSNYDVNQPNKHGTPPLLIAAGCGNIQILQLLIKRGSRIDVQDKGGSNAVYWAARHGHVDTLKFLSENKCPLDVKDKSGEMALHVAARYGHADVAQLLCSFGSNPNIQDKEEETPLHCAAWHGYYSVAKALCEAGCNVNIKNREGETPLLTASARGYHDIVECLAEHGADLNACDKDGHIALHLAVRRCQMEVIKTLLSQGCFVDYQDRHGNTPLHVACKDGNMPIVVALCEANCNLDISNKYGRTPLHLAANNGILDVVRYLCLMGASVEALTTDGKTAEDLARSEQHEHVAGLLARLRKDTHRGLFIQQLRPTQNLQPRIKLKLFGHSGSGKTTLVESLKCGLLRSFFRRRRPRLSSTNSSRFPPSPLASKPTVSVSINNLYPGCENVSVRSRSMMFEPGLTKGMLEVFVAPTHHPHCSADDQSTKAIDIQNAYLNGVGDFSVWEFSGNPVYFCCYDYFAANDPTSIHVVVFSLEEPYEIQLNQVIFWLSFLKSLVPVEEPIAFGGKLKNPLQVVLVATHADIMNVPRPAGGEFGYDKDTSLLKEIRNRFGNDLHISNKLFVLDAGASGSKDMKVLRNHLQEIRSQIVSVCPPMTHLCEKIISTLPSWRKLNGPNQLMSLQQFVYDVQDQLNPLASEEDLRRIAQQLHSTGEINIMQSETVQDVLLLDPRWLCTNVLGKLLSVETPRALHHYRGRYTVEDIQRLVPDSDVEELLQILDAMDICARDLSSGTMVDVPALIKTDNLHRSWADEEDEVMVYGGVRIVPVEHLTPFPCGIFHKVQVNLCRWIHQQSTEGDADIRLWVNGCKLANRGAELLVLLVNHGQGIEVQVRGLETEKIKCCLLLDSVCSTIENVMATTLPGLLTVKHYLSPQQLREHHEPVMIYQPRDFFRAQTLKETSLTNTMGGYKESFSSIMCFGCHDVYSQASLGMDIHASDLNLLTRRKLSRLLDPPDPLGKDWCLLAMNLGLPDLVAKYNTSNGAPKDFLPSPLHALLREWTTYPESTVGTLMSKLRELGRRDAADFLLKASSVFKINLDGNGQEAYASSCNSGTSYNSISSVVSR
T9 sequence (P00533 25-1210): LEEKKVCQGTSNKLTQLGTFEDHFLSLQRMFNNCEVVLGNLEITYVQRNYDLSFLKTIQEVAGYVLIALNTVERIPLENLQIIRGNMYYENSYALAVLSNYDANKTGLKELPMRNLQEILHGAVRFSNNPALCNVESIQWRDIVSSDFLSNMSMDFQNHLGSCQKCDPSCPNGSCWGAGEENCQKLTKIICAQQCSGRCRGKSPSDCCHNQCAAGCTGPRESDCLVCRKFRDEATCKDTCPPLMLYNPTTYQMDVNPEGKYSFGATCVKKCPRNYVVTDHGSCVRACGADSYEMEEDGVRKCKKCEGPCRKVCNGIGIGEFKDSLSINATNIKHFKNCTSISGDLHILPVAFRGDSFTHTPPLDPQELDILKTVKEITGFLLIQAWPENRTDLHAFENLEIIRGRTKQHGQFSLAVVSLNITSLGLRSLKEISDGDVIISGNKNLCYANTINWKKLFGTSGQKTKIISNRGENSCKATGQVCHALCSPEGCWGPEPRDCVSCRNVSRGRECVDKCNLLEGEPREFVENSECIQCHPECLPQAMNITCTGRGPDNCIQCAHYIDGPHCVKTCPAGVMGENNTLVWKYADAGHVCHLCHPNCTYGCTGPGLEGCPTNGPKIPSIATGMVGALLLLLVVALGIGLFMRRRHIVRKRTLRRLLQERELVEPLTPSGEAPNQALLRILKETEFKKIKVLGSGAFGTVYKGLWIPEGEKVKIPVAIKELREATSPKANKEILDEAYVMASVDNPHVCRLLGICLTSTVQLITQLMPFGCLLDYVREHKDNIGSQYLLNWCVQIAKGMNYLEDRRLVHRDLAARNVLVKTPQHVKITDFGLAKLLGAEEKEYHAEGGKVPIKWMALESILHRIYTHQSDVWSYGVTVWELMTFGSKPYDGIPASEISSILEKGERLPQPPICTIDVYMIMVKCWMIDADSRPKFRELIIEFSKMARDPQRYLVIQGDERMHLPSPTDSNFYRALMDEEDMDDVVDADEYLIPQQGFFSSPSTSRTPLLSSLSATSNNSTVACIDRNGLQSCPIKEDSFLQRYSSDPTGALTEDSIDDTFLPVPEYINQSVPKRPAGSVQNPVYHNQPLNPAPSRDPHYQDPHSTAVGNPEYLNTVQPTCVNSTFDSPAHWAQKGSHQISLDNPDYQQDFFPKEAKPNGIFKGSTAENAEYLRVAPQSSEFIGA
T6 sequence (Q14680 whole entry): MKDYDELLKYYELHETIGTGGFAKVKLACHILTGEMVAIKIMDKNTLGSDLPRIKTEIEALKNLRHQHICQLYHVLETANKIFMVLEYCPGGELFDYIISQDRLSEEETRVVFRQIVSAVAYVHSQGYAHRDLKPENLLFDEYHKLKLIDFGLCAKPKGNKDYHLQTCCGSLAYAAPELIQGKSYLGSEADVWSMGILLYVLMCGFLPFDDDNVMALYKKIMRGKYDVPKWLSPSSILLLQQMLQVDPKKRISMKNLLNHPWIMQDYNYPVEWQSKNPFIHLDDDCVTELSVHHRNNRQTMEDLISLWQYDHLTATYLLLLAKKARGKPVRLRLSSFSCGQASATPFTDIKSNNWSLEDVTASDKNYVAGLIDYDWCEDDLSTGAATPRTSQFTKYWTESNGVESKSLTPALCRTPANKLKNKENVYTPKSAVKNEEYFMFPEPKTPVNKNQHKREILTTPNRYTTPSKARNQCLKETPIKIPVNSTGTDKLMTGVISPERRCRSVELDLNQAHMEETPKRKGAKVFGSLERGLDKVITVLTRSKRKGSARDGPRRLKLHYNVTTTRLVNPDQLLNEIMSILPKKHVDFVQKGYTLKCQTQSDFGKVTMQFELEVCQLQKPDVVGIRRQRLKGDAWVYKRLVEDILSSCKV

With `CCN1CCN(Cc2ccc(NC(=O)c3ccc(C)c(NC(=O)c4cncc(-c5cccs5)c4)c3)cc2C(F)(F)F)CC1` [ALW-II-41-27], the remaining binding at 10 µM is above 30% at KinomeScan kinase panel [1] (kinase TGFBR1, 10 µM); 8.8% at KinomeScan kinase panel [2]; above 30% at KinomeScan kinase panel [3]; 0.1% on KinomeScan kinase panel [4]; above 30% on KinomeScan kinase panel [5] (kinase STK16, 10 µM); above 30% at KinomeScan kinase panel [6]. For the same compound, the remaining binding at 10 µM on KinomeScan kinase panel [7] was above 30%. For the same compound, the “score (%)” value at KinomeScan kinase panel [8] is 20%; at KinomeScan kinase panel [9] it was 1.3%.

As for `CCN1CCN(Cc2ccc(NC(=O)c3ccc(C)c(/C=C/c4cnc5[nH]ccc5c4Cl)c3)cc2C(F)(F)F)CC1` [HG-6-63-01, (E)-3-(2-(4-chloro-1H-pyrrolo[2,3-b]pyridin-5-yl)vinyl)-N-(4-((4-ethylpiperazin-1-yl)methyl)-3-(trifluoromethyl)phenyl)-4-methylbenzamide], the remaining binding at 10 µM at KinomeScan kinase panel [1] (TGFBR1, 10 µM) is above 30%; on KinomeScan kinase panel [2] it was above 30%; at KinomeScan kinase panel [3], above 30%; on KinomeScan kinase panel [4], 0.05%; on KinomeScan kinase panel [5] (STK16, 10 µM) it was 18%; at KinomeScan kinase panel [6], 22%. For the same compound, the remaining binding at 10 µM on KinomeScan kinase panel [7] was above 30%. In addition, the “score (%)” value at KinomeScan kinase panel [8] is given as 4.2%; on KinomeScan kinase panel [9] it was 0.3%.

As for `CCN1CCN(Cc2ccc(NC(=O)c3ccc(C)c(C#Cc4cccnc4)c3)cc2C(F)(F)F)CC1` [XMD15-44], the remaining binding at 10 µM was 100% on KinomeScan kinase panel [1] (kinase TGFBR1, 10 µM); above 30% at KinomeScan kinase panel [2]; 100% on KinomeScan kinase panel [3]; 0.05% at KinomeScan kinase panel [4]; 100% at KinomeScan kinase panel [5] (kinase STK16, 10 µM); 8.1% on KinomeScan kinase panel [6]. Besides, on KinomeScan kinase panel [7], the remaining binding at 10 µM was above 30%. The “score (%)” value on KinomeScan kinase panel [8] stood at 2.6%; on KinomeScan kinase panel [9], 3%.
